Laboratory results taken from PubChem BioAssay AID1259408 (Genetic Toxicology Data Bank (GENE-TOX), 2018).
The source made the active and inactive calls. No rule for the calls is given here.

Test system: GENE-TOX genotoxicity assays, various organisms and cells
Assay: GENE-TOX mutagenicity studies
Settings: for call: Assay Type: In vivo carcinogenicity studies
[1] = Species/Cell Type: Drosophila melanogaster, Assay Type: Sex-linked recessive lethal gene mutation, Assay Code: SRLT, Evaluation Type: Evaluation A (Pre-1980)
[2] = Species/Cell Type: Human, Assay Type: Sister-chromatid exchange (SCE) in vitro, Assay Code: SC1+D, Dose Response: With dose response, Evaluation Type: Evaluation B (Post-1980)
[3] = Species/Cell Type: Mammalian polychromatic erythrocytes, Assay Type: Micronucleus test, chromosome aberrations, Assay Code: MNT+, Evaluation Type: Evaluation A (Pre-1980)
[4] = Species/Cell Type: Nonhuman, Assay Code: CCG+L, Evaluation Type: Evaluation A (Pre-1980)
[5] = Species/Cell Type: Nonhuman, Assay Type: Sister-chromatid exchange (SCE) in vitro, Assay Code: SC2+D, Dose Response: With dose response, Evaluation Type: Evaluation B (Post-1980)
[6] = Species/Cell Type: Nonhuman, Assay Type: Sister-chromatid exchange (SCE) in vivo, Assay Code: SC3+D, Dose Response: With dose response, Evaluation Type: Evaluation B (Post-1980)
[7] = Species/Cell Type: Chinese hamster lung (V79) cells, Assay Type: Forward gene mutation at the HPRT or ouabain locus, Assay Code: V79-*, Activation: With metabolic activation, Evaluation Type: Evaluation A (Pre-1980)
[8] = Species/Cell Type: Saccharomyces cerevisiae, Assay Type: Mitotic recombination or gene conversion, Assay Code: YEH-, Evaluation Type: Evaluation A (Pre-1980)
[9] = Species/Cell Type: Salmonella typhimurium (one or more of the five standard strains: TA98, TA100, TA1535, TA1537, and TA1538), Assay Type: Histidine reverse gene mutation, Ames assay, Assay Code: SALT, Evaluation Type: Evaluation A (Pre-1980)

`CC(=O)Nc1c(I)c(NC(C)=O)c(I)c(C(=O)O)c1I` was tested, and the mutagenic call (Species/Cell Type: Human lymphocytes, Assay Type: Sister-chromatid exchange (SCE) in vitro, Assay Code: SCLT, Evaluation Type: Evaluation B (Post-1980)) was “no conclusion” and the mutagenic call (Species/Cell Type: Human, Assay Type: Sister-chromatid exchange (SCE) in vitro, Assay Code: SC1T, Evaluation Type: Evaluation B (Post-1980)) was “no conclusion”.
`Cc1cc(C(=O)NNCc2ccccc2)no1` was tested, and the mutagenic call (Species/Cell Type: Nonhuman, Assay Type: Sister-chromatid exchange (SCE) in vivo, Assay Code: SC3+, Evaluation Type: Evaluation B (Post-1980)) was “active; positive”.
`CCOC(=O)NO` was tested, and the mutagenic call [1] was “no conclusion”, the mutagenic call (Species/Cell Type: Escherichia coli polA (W3119 vs P3478), Assay Type: Rec-assay, DNA effects (bacterial DNA repair), Assay Code: RE1+, Evaluation Type: Evaluation A (Pre-1980)) was “active; positive” and the mutagenic call (Species/Cell Type: Human lymphocytes or leukocytes, Assay Type: Chromosome aberrations in vitro, Assay Code: CY7+, Evaluation Type: Evaluation A (Pre-1980)) was “active; positive”. The mutagenic call (Species/Cell Type: Human lymphocytes, Assay Type: Sister-chromatid exchange (SCE) in vitro, Assay Code: SCL+D, Dose Response: With dose response, Evaluation Type: Evaluation B (Post-1980)) was “active; positive”, the mutagenic call [2] was “active; positive” and the mutagenic call [3] was “active; positive”. The mutagenic call (Species/Cell Type: Mouse embryo (AKR/ME) cells, Assay Type: Cell transformation, Assay Code: CTK+, Evaluation Type: Evaluation A (Pre-1980)) was “active; positive”, the call [4] was “active; positive” and the mutagenic call [5] was “active; positive”. The mutagenic call [6] was “active; positive”.
With `Cc1c2ccccc2c(C)c2c1ccc1ccc(F)cc12` the mutagenic call [7] was “inactive; negative”.
`CC(=O)Nc1ccc2c(c1)Cc1ccccc1-2` was tested, and the mutagenic call (Species/Cell Type: Chinese hamster lung (V79) cells, Assay Type: Forward gene mutation at the HPRT or ouabain locus, Assay Code: V79-, Evaluation Type: Evaluation A (Pre-1980)) was “inactive; negative”, the mutagenic call (Species/Cell Type: Chinese hamster ovary (CHO) cells, Assay Type: Forward gene mutation at the HPRT locus, Assay Code: CHO+*, Activation: With metabolic activation, Evaluation Type: Evaluation B (Post-1980)) was “active; positive” and the mutagenic call [1] was “no conclusion”. The mutagenic call (Species/Cell Type: Escherichia coli polA (W3110 vs P3478), Assay Type: Rec-assay, DNA effects (bacterial DNA repair), Assay Code: RE2+, Evaluation Type: Evaluation A (Pre-1980)) was “active; positive”, the mutagenic call (Species/Cell Type: Escherichia coli polA (W3119 vs P3478), Assay Type: Rec-assay, DNA effects (bacterial DNA repair), Assay Code: RE1-, Evaluation Type: Evaluation A (Pre-1980)) was “inactive; negative” and the mutagenic call (Species/Cell Type: Fischer rat embryo (RLV/1706) cells, Assay Type: Cell transformation, viral enhanced, Assay Code: CTRT, Evaluation Type: Evaluation A (Pre-1980)) was “no conclusion”. For the same compound, the mutagenic call (Species/Cell Type: Human diploid fibroblasts, Assay Type: Unscheduled DNA synthesis (UDS) in vitro, DNA effects, Assay Code: UDHT, Evaluation Type: Evaluation A (Pre-1980)) was “no conclusion”, the mutagenic call (Species/Cell Type: Human lymphocytes, Assay Type: Sister-chromatid exchange (SCE) in vitro, Assay Code: SCL-, Evaluation Type: Evaluation A (Pre-1980)) was “inactive; negative” and the mutagenic call [2] was “active; positive”. The mutagenic call (Species/Cell Type: Human, Assay Type: Sister-chromatid exchange (SCE) in vitro, Assay Code: SC1-, Evaluation Type: Evaluation A (Pre-1980)) was “inactive; negative”, the mutagenic call [3] was “active; positive” and the mutagenic call (Species/Cell Type: Mouse (BALB/c-3T3) cells, Assay Type: Cell transformation, Assay Code: CTB+D, Dose Response: With dose response, Evaluation Type: Evaluation A (Pre-1980)) was “active; positive”. For the same compound, the mutagenic call (Species/Cell Type: Mouse lymphoma (L5178Y) cells, Assay Type: Forward gene mutation at the thymidine kinase (TK) locus, chromosome aberrations, Assay Code: L51+*, Activation: With metabolic activation, Evaluation Type: Evaluation A (Pre-1980)) was “active; positive”, the mutagenic call (Species/Cell Type: Mouse, Sex: Male, Assay Type: Sperm morphology, Assay Code: SPI-, Evaluation Type: Evaluation A (Pre-1980)) was “inactive; negative” and the call (Species/Cell Type: Nonhuman, Assay Code: CCG+, Evaluation Type: Evaluation A (Pre-1980)) was “active; positive”. The mutagenic call (Species/Cell Type: Nonhuman, Assay Type: Sister-chromatid exchange (SCE) in vitro, Assay Code: SC2+, Evaluation Type: Evaluation A (Pre-1980)) was “active; positive”, the mutagenic call [6] was “active; positive” and the mutagenic call (Species/Cell Type: Nonhuman, Assay Type: Sister-chromatid exchange (SCE) in vivo, Assay Code: SC3T, Evaluation Type: Evaluation A (Pre-1980)) was “no conclusion”. For the same compound, the mutagenic call (Species/Cell Type: Rat primary hepatocytes, Assay Type: Unscheduled DNA synthesis (UDS) in vitro, DNA effects, Assay Code: UDP+, Evaluation Type: Evaluation A (Pre-1980)) was “active; positive”, the mutagenic call (Species/Cell Type: Saccharomyces cerevisiae, Assay Type: Mitotic recombination or gene conversion, Assay Code: YEC-*, Activation: With metabolic activation, Evaluation Type: Evaluation A (Pre-1980)) was “inactive; negative” and the mutagenic call (Species/Cell Type: Saccharomyces cerevisiae, Assay Type: Mitotic recombination or gene conversion, Assay Code: YEH-*, Activation: With metabolic activation, Evaluation Type: Evaluation A (Pre-1980)) was “inactive; negative”. The mutagenic call (Species/Cell Type: Salmonella typhimurium (one or more of the five standard strains: TA98, TA100, TA1535, TA1537, and TA1538), Assay Type: Histidine reverse gene mutation, Ames assay, Assay Code: SAL+*, Activation: With metabolic activation, Evaluation Type: Evaluation A (Pre-1980)) was “active; positive”, the mutagenic call (Species/Cell Type: Salmonella typhimurium, Assay Type: Forward and reverse gene mutation, body fluid assay, Assay Code: BFU+, Evaluation Type: Evaluation A (Pre-1980)) was “active; positive” and the mutagenic call (Species/Cell Type: Salmonella typhimurium, Assay Type: Forward and reverse gene mutation, host-mediated assay, Assay Code: HMA+, Evaluation Type: Evaluation A (Pre-1980)) was “active; positive”. For the same compound, the mutagenic call (Species/Cell Type: Syrian hamster embryo (SA7/SHE) cells, Assay Type: Cell transformation, viral enhanced, Assay Code: CT7-, Evaluation Type: Evaluation A (Pre-1980)) was “inactive; negative” and the mutagenic call (Species/Cell Type: Syrian hamster embryo (SHE) cells, Assay Type: Cell transformation, clonal assay, Assay Code: CTC+D*, Activation: With metabolic activation, Dose Response: With dose response, Evaluation Type: Evaluation A (Pre-1980)) was “active; positive”.
In the case of `CCOC(=O)CC(SP(=S)(OC)OC)C(=O)OCC` (stereo not given), the mutagenic call (Species/Cell Type: Bacillus subtilis (H17 vs M45), Assay Type: Rec-assay, spot test, DNA effects (bacterial DNA repair), Assay Code: REWT, Evaluation Type: Evaluation A (Pre-1980)) is reported as “no conclusion”, the mutagenic call (Species/Cell Type: Drosophila melanogaster, Assay Type: Sex-linked recessive lethal gene mutation, Assay Code: SRL-, Evaluation Type: Evaluation A (Pre-1980)) is reported as “inactive; negative” and the mutagenic call (Species/Cell Type: Escherichia coli WP2 UVRA, Assay Type: Tryptophan reverse gene mutation, Assay Code: WPU-*, Activation: With metabolic activation, Evaluation Type: Evaluation A (Pre-1980)) is reported as “inactive; negative”. The mutagenic call (Species/Cell Type: Escherichia coli polA (W3119 vs P3478), Assay Type: Rec-assay, DNA effects (bacterial DNA repair), Assay Code: RE1T, Evaluation Type: Evaluation A (Pre-1980)) was “no conclusion”, the mutagenic call (Species/Cell Type: Hordeum vulgare (barley), Assay Type: Chromosome aberrations, Assay Code: HOC+D, Dose Response: With dose response, Evaluation Type: Evaluation A (Pre-1980)) was “active; positive” and the mutagenic call (Species/Cell Type: Human diploid fibroblasts, Assay Type: Unscheduled DNA synthesis (UDS) in vitro, DNA effects, Assay Code: UDH-, Evaluation Type: Evaluation A (Pre-1980)) was “inactive; negative”. For the same compound, the mutagenic call (Species/Cell Type: Human, Assay Type: Sister-chromatid exchange (SCE) in vitro, Assay Code: SC1+D, Dose Response: With dose response, Evaluation Type: Evaluation A (Pre-1980)) was “active; positive”, the mutagenic call [2] was “active; positive” and the mutagenic call (Species/Cell Type: Mammalian polychromatic erythrocytes, Assay Type: Micronucleus test, chromosome aberrations, Assay Code: MNT+, Evaluation Type: Evaluation B (Post-1980)) was “active; positive”. The call (Species/Cell Type: Nonhuman, Assay Code: CCG-, Evaluation Type: Evaluation A (Pre-1980)) was “inactive; negative”, the mutagenic call [5] was “active; positive” and the mutagenic call [8] was “inactive; negative”. The mutagenic call (Species/Cell Type: Salmonella typhimurium (one or more of the five standard strains: TA98, TA100, TA1535, TA1537, and TA1538), Assay Type: Histidine reverse gene mutation, Ames assay, Assay Code: SAL-, Evaluation Type: Evaluation A (Pre-1980)) was “inactive; negative”.
For `C=C(C)C(=O)/C(=C\C(=O)O)OC`, the mutagenic call (Species/Cell Type: Bacillus subtilis (H17 vs M45), Assay Type: Rec-assay, spot test, DNA effects (bacterial DNA repair), Assay Code: REW+, Evaluation Type: Evaluation A (Pre-1980)) was “active; positive”, the call [4] was “active; positive” and the mutagenic call [8] was “inactive; negative”. For the same compound, the mutagenic call [9] was “no conclusion”.
For `CCC=O`, the mutagenic call (Species/Cell Type: Human lymphocytes, Assay Type: Sister-chromatid exchange (SCE) in vitro, Assay Code: SCL+, Evaluation Type: Evaluation B (Post-1980)) was “active; positive” and the mutagenic call (Species/Cell Type: Human, Assay Type: Sister-chromatid exchange (SCE) in vitro, Assay Code: SC1+, Evaluation Type: Evaluation B (Post-1980)) was “active; positive”.
`Cc1c2c(cc3ccccc13)-c1ccccc1C(O)C2O` (stereo not given) was tested, and the mutagenic call [7] was “inactive; negative”, the call (Species/Cell Type: Nonhuman, Assay Code: CCGT, Evaluation Type: Evaluation A (Pre-1980)) was “no conclusion” and the mutagenic call (Species/Cell Type: Nonhuman, Assay Type: Sister-chromatid exchange (SCE) in vitro, Assay Code: SC2T, Evaluation Type: Evaluation A (Pre-1980)) was “no conclusion”. The mutagenic call [9] was “no conclusion”.
With `C[CH2][Pb]([Cl])([CH2]C)[CH2]C` the mutagenic call (Species/Cell Type: Drosophila melanogaster, Assay Type: Aneuploidy, sex chromosome gain, chromosome aberrations, Assay Code: DAG-M, Evaluation Type: Evaluation A (Pre-1980)) was “inactive; negative” and the mutagenic call (Species/Cell Type: Drosophila melanogaster, Assay Type: Aneuploidy, whole sex chromosome loss, chromosome aberrations, Assay Code: DAC+M, Evaluation Type: Evaluation A (Pre-1980)) was “active; positive”.
